In the test the test system is pancreatic cancer cell line BxPC-3. Briefly: In vitro survival assay (MTT) for anti-pancreatic cancer effects. The test is classed as cell-based. Conditions: Homo sapiens, BxPC-3 cells, 48 hours treatment, 0.03-30 μg/ml, read-out: IC50 (half inhibition concentration), survival of pancreatic cancer cells. On the procedure:
The compound 4--2,3-dimethoxy-6-methyl-5-(3,7,11-trimethyl-dodeca-2,6,10-trienyl)-cyclohex-2-enone of the formula (2) is explained below as an example for the present invention. The anti-cancer effects of 4--2,3-dimethoxy-6-methyl-5-(3,7,11-trimethyl-dodeca-2,6,10-trienyl)-cyclohex-2-enone was assessed using 3-(4,5-dimethylthiazol-2-yl)-2,5-diphenyltetrazolium bromide MTT) assay according to the anti-cancer drug screening model of National Cancer Institute (NCI) to analyze survival rates on pancreatic cancer cell line BxPC-3. […] Therefore, cyclohexenone compounds from Antrodia camphorata can be used for inhibiting the survival of pancreatic cancer cells and further be applied for the treatment of pancreatic cancer. The details of the examples are described as follows:
Inhibiting effects of pancreatic cancer cells by cyclohexenone compounds of Antrodia camphorata from example 1 were assessed according to the anticancer-drug screening model of National Cancer Institute (NCI). […] Survival of cell was analyzed using MTT assay. […]
The BxPC-3 cells were cultivated in RPMI 1640 medium supplemented with 10% fetal bovine serum, 100 IU/ml of Penicillin and […] of Streptomycin at 37° C., 5% CO2 for 24 hours. […] The absorbances were measured at 570 nm with an ELISA Reader to determine the survival rates.

As for `COC1=C(OC)C(O)C(C/C=C(\C)CC/C=C(\C)CCC=C(C)C)C(C)C1=O` (stereo not shown) [formula 2, 4--2,3-dimethoxy-6-methyl-5-(3,7,11-trimethyl-dodeca-2,6,10-trienyl)-cyclohex-2-enone], the IC50 came to 1.44 µg/mL.
